Source: patent publication US7423025B2 (MUSC Foundation for Research Development, priority 2005, dated 2008)
“Also recorded” adds a separate entry of the source.

Legend:
L6 myoblasts = assay: Azide-induced Pasteur effect in L6 myoblasts measured by microphysiometer; format: cell-based; settings: sodium azide 5 mM, 10 min exposure, normalized to first azide exposure 30 min prior
Protocol: FIG. 5 is a graph showing increase of the azide-induced Pasteur effect on L6 myoblasts by L-3′-AM-MECA (2) and L-3′-ADMdA (1). Percent changes in extracellular acidification rates upon treatment of L6 cells with sodium azide (5 mM) are shown. Responses are the average for 10 min exposure and these are normalized to the increase measured for the first exposure of the same cells to azide 30 min prior. Typically the second exposure causes a diminished Pasteur effect (see control). Error bars are SEM for n=3-5. * Statistically different from negative control (IR).
The ability of increasing the azide-induced Pasteur in L6 myoblasts was measured by microphysiometer.

[1] = tested on: Langendorff perfused mouse heart; assay: Ischemia/reperfusion model on Langendorff perfused (isolated) mouse heart, cardioprotective activity; settings: for maximum ischemic contracture, in words / time until onset of ischemic contracture, in words: 5 min pretreatment before 40 min ischemia; for cardiac tissue necrosis / infarction area by TTC staining, in words: 5 min pretreatment before ischemia-reperfusion; for infarction area (TTC staining, percentage of area) / maximum ischemic contracture: 5 min pretreatment; for infarction area (TTC staining, percentage of area) / maximum ischemic contracture / onset of contracture (time until onset of ischemic contracture): 40 min global ischemia; for infarction area (TTC staining, percentage of area): 60 min reperfusion, negative control 58.3±5.8%; for infarction area (TTC staining, percentage of area) / maximum ischemic contracture / onset of contracture (time until onset of ischemic contracture) / functional recovery (% rate pressure product): Mean±SEM; for maximum ischemic contracture: negative control 105.0±6.8 cmH2O; for onset of contracture (time until onset of ischemic contracture): negative control 10.5±1.0 min; for functional recovery (% rate pressure product): after 40 min ischemia and reperfusion, negative control 21.3±1.4; for functional recovery of contractility (% RPP), in words: upon reperfusion after 40 min ischemia
[2] = tested on: mammalian nucleoside transporters; settings: cited from earlier work
[3] = target: S-adenosyl-L-homocysteine hydrolase (Homo sapiens, UniProt P23526); settings: cited from earlier work
Chain of S-adenosyl-L-homocysteine hydrolase (P23526 whole entry, species assumed): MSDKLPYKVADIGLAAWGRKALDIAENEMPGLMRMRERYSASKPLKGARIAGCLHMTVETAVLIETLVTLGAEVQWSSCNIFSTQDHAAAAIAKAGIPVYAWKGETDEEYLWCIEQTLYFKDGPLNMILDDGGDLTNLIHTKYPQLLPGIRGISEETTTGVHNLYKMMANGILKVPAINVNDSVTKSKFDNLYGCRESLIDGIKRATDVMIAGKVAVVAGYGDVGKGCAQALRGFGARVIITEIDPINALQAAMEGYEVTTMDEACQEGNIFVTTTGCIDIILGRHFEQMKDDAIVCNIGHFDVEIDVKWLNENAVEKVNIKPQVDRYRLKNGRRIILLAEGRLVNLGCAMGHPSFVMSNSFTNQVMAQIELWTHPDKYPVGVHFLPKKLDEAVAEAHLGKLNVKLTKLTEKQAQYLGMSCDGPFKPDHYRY

SMILES: OC[C@H]1O[C@@H](n2cnc3c(NC4CCCC4)nc(Cl)nc32)[C@H](O)[C@@H]1O [CCPA, reference compound]
- increase of azide-induced Pasteur effect (extracellular acidification rate) (L6 myoblasts): 19%

SMILES: CN(C)c1ncnc2c1ncn2[C@H]1O[C@@H](CO)[C@H](N)[C@@H]1O [Compound 1, L-3′-amino-3′-deoxy-N^6-dimethyladenosine]
- increase of azide-induced Pasteur effect (extracellular acidification rate) (L6 myoblasts): 136%
- maximum ischemic contracture, in words [1]: significant decrease of maximum ischemic contracture; also recorded: significantly decreased maximum ischemic contracture
- time until onset of ischemic contracture, in words [1]: increasing the time until onset of ischemic contracture
- cardiac tissue necrosis / infarction area by TTC staining, in words [1]: protective effect that is comparable or higher than adenosine; also recorded: showed decrease of cardiac tissue necrosis
- infarction area (TTC staining, percentage of area) [1]: 39.8±5.7%
- maximum ischemic contracture [1]: 74.3±7.8 cmH2O
- onset of contracture (time until onset of ischemic contracture) [1]: 14.5 ± 0.9 min
- functional recovery (% rate pressure product) [1]: 32.2±3.7 cmH2O/s % rate pressure product
- cardiac standstill during treatment ([1]; during 5 min perfusion before ischemia, adenosine at 50 μM): neither showed cardiac standstill during treatment; also recorded: neither (1) nor (2) induce cardiac standstill
- functional recovery of contractility (% RPP), in words [1]: significant functional recovery of contractility

SMILES: CNC(=O)[C@@H]1O[C@H](n2cnc3c(NC)ncnc32)[C@@H](O)[C@H]1N [Compound 2, L-3′-amino-3′-deoxy-N^6-methyladenosine-5′-N-methyluronamide]
- increase of azide-induced Pasteur effect (extracellular acidification rate) (L6 myoblasts): 128%
- maximum ischemic contracture, in words [1]: significant decrease of maximum ischemic contracture; also recorded: significantly decreased maximum ischemic contracture
- time until onset of ischemic contracture, in words [1]: does not show a significant effect; also recorded: did not significantly alter this parameter
- cardiac tissue necrosis / infarction area by TTC staining, in words [1]: protective effect that is comparable or higher than adenosine; also recorded: showed decrease of cardiac tissue necrosis
- infarction area (TTC staining, percentage of area) [1]: 31.8±5.4%
- maximum ischemic contracture [1]: 87.6±6.3 cmH2O
- functional recovery of contractility (% RPP), in words [1]: did not show significant functional recovery
- functional recovery of contractility (% RPP), in words ([1]; listed as L-3′-AM-MECA): did not show any significant effect

SMILES: Nc1ncnc2c1ncn2[C@H]1O[C@@H](CO)[C@H](O)[C@@H]1O [L-adenosine]
- interaction with mammalian nucleoside transporters [2]: does not interact
- activity on animal enzymes such as S-adenosyl-L-homocysteine hydrolase [3]: inactive

SMILES: CNC(=O)[C@H]1O[C@@H](n2cnc3c(N)ncnc32)[C@H](O)[C@@H]1O [MECA, reference compound]
- increase of azide-induced Pasteur effect (extracellular acidification rate) (L6 myoblasts): 115%

SMILES: Nc1ncnc2c1ncn2[C@@H]1O[C@H](CO)[C@@H](O)[C@H]1O [adenosine, reference compound]
- maximum ischemic contracture, in words [1]: lower maximal
- time until onset of ischemic contracture, in words [1]: delayed time until onset of ischemic contracture
- cardiac tissue necrosis / infarction area by TTC staining, in words [1]: significantly less evidence of necrosis
- infarction area (TTC staining, percentage of area) [1]: 24.6±5.8%
- maximum ischemic contracture [1]: 74.1±15.6 cmH2O
- onset of contracture (time until onset of ischemic contracture) [1]: 13.6 ± 0.6 min
- functional recovery (% rate pressure product) [1]: 30.7±3.4 cmH2O/s % rate pressure product
- functional recovery of contractility (% RPP), in words [1]: significantly increased recovery of function
